# US10729691B2, “Treatment of infectious diseases with glucose uptake inhibitors” (Kadmon Corporation LLC, priority 2015, dated 2020)
# Counter-ions that a name gives are not always drawn.
# System: P. falciparum-infected RBCs
# Experiment: Glycolysis IC50 / lactate excretion assay in P. falciparum-infected RBCs
# Assay type: cell-based
# Conditions: Plasmodium falciparum
# Description: The cultures were harvested and DNA quantitated using the standard Sybr Green I fluorescence assay. […] The culture medium was harvested and extracellular lactic acid was quantified by LC-MS.
# P. falciparum (HB-3 strain) cultures were maintained in standard culture conditions. […] Parasites were grown in O+ donor blood, 2% hematocrit.
# Parasite cultures were seeded in 96-well plates (1% hematocrit, 1-2% starting parasitemia, 100 μL total volume) with varying concentrations of the test compounds in a final concentration of 0.1% DMSO. Plates were cultured for 48 hours before harvesting the culture medium for LC-MS analysis. At harvest, thin smears were taken and examined microscopically to observe any alterations in parasite morphology.
# Culture medium samples were diluted in 9 volumes of methanol containing U-^13C-glucose and 1-^13C-lactate (final concentration 0.25 mM each). The samples were clarified by centrifugation at 13,000 RCF for 10 minutes. […] Mobile phase A was acetonitrile, and mobile phase B was 20 mM ammonium acetate (pH 9.4).
# The sample was analyzed on an Exactive mass spectrometer (Thermo Scientific) to determine the chromatographic peak areas the analytes and internal standards. Glucose and lactate were quantified by taking the ratio of the unlabeled peak area to the area of the isotope-labeled standard.
row,IC50 [nM],Structure (SMILES)
1,10 to 100,"CC(C)NC(=O)COc1cccc(-c2nc3c(c(Nc4ccc(-c5cn[nH]c5)cc4)n2)CN(C(=O)C(C)C)CC3)c1 [Example 1, 2-(3-(4-((4-(1H-pyrazol-4-yl)phenyl)amino)-6-isobutyryl-5,6,7,8-tetrahydropyrido[4,3-d]pyrimidin-2-yl)phenoxy)-N-isopropylacetamide]"
2,101 to 250,"CC(C)NC(=O)COc1cccc(-c2nc3c(c(Nc4ccc(-c5cn[nH]c5)cc4)n2)COC3)c1 [Example 2, 2-(3-(4-((4-(1H-pyrazol-4-yl)phenyl)amino)-5,7-dihydrofuro[3,4-d]pyrimidin-2-yl)phenoxy)-N-isopropylacetamide]"
3,251 to 500,O=C(COc1cccc(-c2nc(Nc3ccc(-c4cn[nH]c4)cc3)c3sccc3n2)c1)NC1CC1 [Example 5]
4,251 to 500,O=C(COc1cccc(-c2nc(Nc3ccc(-c4cn[nH]c4)cc3)c3occc3n2)c1)NC1CCCC1 [Example 9]
5,101 to 250,Cn1cnc2c(Nc3ccc(-c4cn[nH]c4)cc3)nc(-c3cccc(OCC(=O)NC4CCC4)c3)nc21 [Example 11]
6,101 to 250,O=C(COc1cccc(-c2nc3c(c(Nc4ccc(-c5cn[nH]c5)cc4)n2)COC3)c1)NC1CCC1 [Example 12]
7,101 to 250,O=C(COc1cccc(-c2nc3c(c(Nc4ccc(-c5cn[nH]c5)cc4)n2)COC3)c1)NC1CCCC1 [Example 13]
8,251 to 500,"CC(C)CNC(=O)COc1cccc(-c2nc(Nc3ccc(-c4cn[nH]c4)cc3)c3ncccc3n2)c1 [Example 14, 2-(3-(4-((4-(1H-pyrazol-4-yl)phenyl)amino)pyrido[3,2-d]pyrimidin-2-yl)phenoxy)-N-isobutylacetamide]"
9,101 to 250,"Cn1ncc2c(Nc3ccc(-c4cn[nH]c4)cc3)nc(-c3cccc(OCC(=O)NC4CCC4)c3)nc21 [Example 15, 2-(3-(4-((4-(1H-pyrazol-4-yl)phenyl)amino)-1-methyl-1H-pyrazolo[3,4-d]pyrimidin-6-yl)phenoxy)-N-cyclobutylacetamide]"
10,10 to 100,"CC(C)NC(=O)COc1cccc(-c2nc(Nc3ccc(-c4cn[nH]c4)cc3)c3cnn(C)c3n2)c1 [Example 16, 2-(3-(4-((4-(1H-pyrazol-4-yl)phenyl)amino)-1-methyl-1H-pyrazolo[3,4-d]pyrimidin-6-yl)phenoxy)-N-isopropylacetamide]"
11,101 to 250,"Cn1ncc2c(Nc3ccc(-c4cn[nH]c4)cc3)nc(-c3cccc(OCC(=O)NC4CCCC4)c3)nc21 [Example 17, 2-(3-(4-((4-(1H-pyrazol-4-yl)phenyl)amino)-1-methyl-1H-pyrazolo[3,4-d]pyrimidin-6-yl)phenoxy)-N-cyclopentylacetamide]"
12,10 to 100,"CC(C)CNC(=O)COc1cccc(-c2nc(Nc3ccc(-c4cn[nH]c4)cc3)c3cnn(C)c3n2)c1 [Example 18, 2-(3-(4-((4-(1H-pyrazol-4-yl)phenyl)amino)-1-methyl-1H-pyrazolo[3,4-d]pyrimidin-6-yl)phenoxy)-N-isobutylacetamide]"
13,101 to 250,"CC(C)NC(=O)COc1cccc(-c2nc(Nc3ccc(-c4cn[nH]c4)cc3)c3ccncc3n2)c1 [Example 19, 2-(3-(4-((4-(1H-pyrazol-4-yl)phenyl)amino)pyrido[3,4-d]pyrimidin-2-yl)phenoxy)-N-isopropylacetamide]"
14,101 to 250,"O=C(COc1cccc(-c2nc(Nc3ccc(-c4cn[nH]c4)cc3)c3ccncc3n2)c1)NC1CCC1 [Example 20, 2-(3-(4-((4-(1H-pyrazol-4-yl)phenyl)amino)pyrido[3,4-d]pyrimidin-2-yl)phenoxy)-N-cyclobutylacetamide]"
15,101 to 250,"O=C(COc1cccc(-c2nc(Nc3ccc(-c4cn[nH]c4)cc3)c3ccncc3n2)c1)NC1CCCC1 [Example 21, 2-(3-(4-((4-(1H-pyrazol-4-yl)phenyl)amino)pyrido[3,4-d]pyrimidin-2-yl)phenoxy)-N-cyclopentylacetamide]"
16,251 to 500,"CC(C)NC(=O)COc1cccc(-c2nc(Nc3ccc(-c4cn[nH]c4)cc3)c3ncsc3n2)c1 [Example 22, 2-(3-(7-((4-(1H-pyrazol-4-yl)phenyl)amino)thiazolo[5,4-d]pyrimidin-5-yl)phenoxy)-N-isopropylacetamide]"
17,251 to 500,"O=C(COc1cccc(-c2nc(Nc3ccc(-c4cn[nH]c4)cc3)c3ncsc3n2)c1)NC1CCC1 [Example 23, 2-(3-(7-((4-(1H-pyrazol-4-yl)phenyl)amino)thiazolo[5,4-d]pyrimidin-5-yl)phenoxy)-N-cyclobutylacetamide]"

row,IC50 [nM],Structure (SMILES)
1,251 to 500,"O=C(COc1cccc(-c2nc(Nc3ccc(-c4cn[nH]c4)cc3)c3ncsc3n2)c1)NC1CCCC1 [Example 24, 2-(3-(7-((4-(1H-pyrazol-4-yl)phenyl)amino)thiazolo[5,4-d]pyrimidin-5-yl)phenoxy)-N-cyclopentylacetamide]"
2,251 to 500,"CC(C)CNC(=O)COc1cccc(-c2nc(Nc3ccc(-c4cn[nH]c4)cc3)c3ncsc3n2)c1 [Example 25, 2-(3-(7-((4-(1H-pyrazol-4-yl)phenyl)amino)thiazolo[5,4-d]pyrimidin-5-yl)phenoxy)-N-isobutylacetamide]"
3,101 to 250,"CC(C)(C)NC(=O)COc1cccc(-c2nc3c(c(Nc4ccc(-c5cn[nH]c5)cc4)n2)COC3)c1 [Example 26, 2-(3-(4-((4-(1H-pyrazol-4-yl)phenyl)amino)-5,7-dihydrofuro[3,4-d]pyrimidin-2-yl)phenoxy)-N-(tert-butyl)acetamide dihydrochloride]"
4,10 to 100,"CCC(CC)NC(=O)COc1cccc(-c2nc3c(c(Nc4ccc(-c5cn[nH]c5)cc4)n2)COC3)c1 [Example 27, 2-(3-(4-((4-(1H-pyrazol-4-yl)phenyl)amino)-5,7-dihydrofuro[3,4-d]pyrimidin-2-yl)phenoxy)-N-(pentan-3-yl)acetamide dihydrochloride]"
5,10 to 100,"CCC(C)NC(=O)COc1cccc(-c2nc3c(c(Nc4ccc(-c5cn[nH]c5)cc4)n2)COC3)c1 (stereo not drawn) [Example 28, 2-(3-(4-((4-(1H-pyrazol-4-yl)phenyl)amino)-5,7-dihydrofuro[3,4-d]pyrimidin-2-yl)phenoxy)-N-(sec-butyl)acetamide]"
6,101 to 250,"CC(C)CNC(=O)COc1cccc(-c2nc3c(c(Nc4ccc(-c5cn[nH]c5)cc4)n2)COC3)c1 [Example 29, 2-(3-(4-((4-(1H-pyrazol-4-yl)phenyl)amino)-5,7-dihydrofuro[3,4-d]pyrimidin-2-yl)phenoxy)-N-isobutylacetamide]"
7,101 to 250,"CC(C)(C)CNC(=O)COc1cccc(-c2nc3c(c(Nc4ccc(-c5cn[nH]c5)cc4)n2)COC3)c1 [Example 30, 2-(3-(4-((4-(1H-pyrazol-4-yl)phenyl)amino)-5,7-dihydrofuro[3,4-d]pyrimidin-2-yl)phenoxy)-N-neopentylacetamide]"
8,251 to 500,"O=C(COc1cccc(-c2nc3c(c(Nc4ccc(-c5cn[nH]c5)cc4)n2)COC3)c1)NC1CC(F)(F)C1 [Example 32, 2-(3-(4-((4-(1H-pyrazol-4-yl)phenyl)amino)-5,7-dihydrofuro[3,4-d]pyrimidin-2-yl)phenoxy)-N-(3,3-difluorocyclobutyl)acetamide]"
9,501 to 1000,"CC(C)NC(=O)COc1cccc(-c2nc3c(c(Nc4ccc(-c5cn[nH]c5)cc4)n2)CSC3)c1 [Example 34, 2-(3-(4-((4-(1H-pyrazol-4-yl)phenyl)amino)-5,7-dihydrothieno[3,4-d]pyrimidin-2-yl)phenoxy)-N-isopropylacetamide]"
10,501 to 1000,"O=C(COc1cccc(-c2nc3c(c(Nc4ccc(-c5cn[nH]c5)cc4)n2)CSC3)c1)NC1CCC1 [Example 35, 2-(3-(4-((4-(1H-pyrazol-4-yl)phenyl)amino)-5,7-dihydrothieno[3,4-d]pyrimidin-2-yl)phenoxy)-N-cyclobutylacetamide]"
11,501 to 1000,"O=C(COc1cccc(-c2nc3c(c(Nc4ccc(-c5cn[nH]c5)cc4)n2)CSC3)c1)NC1CCCC1 [Example 36, 2-(3-(4-((4-(1H-pyrazol-4-yl)phenyl)amino)-5,7-dihydrothieno[3,4-d]pyrimidin-2-yl)phenoxy)-N-cyclopentylacetamide]"
12,10 to 100,"CC(C)NC(=O)COc1cccc(-c2nc3c(c(Nc4ccc(-c5cn[nH]c5)cc4)n2)COCC3)c1 [Example 40, 2-(3-(4-((4-(1H-pyrazol-4-yl)phenyl)amino)-7,8-dihydro-5H-pyrano[4,3-d]pyrimidin-2-yl)phenoxy)-N-isopropylacetamide]"
13,10 to 100,"CCC(C)NC(=O)COc1cccc(-c2nc3c(c(Nc4ccc(-c5cn[nH]c5)cc4)n2)COCC3)c1 (stereo not drawn) [Example 41, 2-(3-(4-((4-(1H-pyrazol-4-yl)phenyl)amino)-7,8-dihydro-5H-pyrano[4,3-d]pyrimidin-2-yl)phenoxy)-N-(sec-butyl)acetamide]"
14,101 to 250,"CC(C)(C)NC(=O)COc1cccc(-c2nc(Nc3ccc(-c4cn[nH]c4)cc3)c3sccc3n2)c1 [Example 42, 2-(3-(4-((4-(1H-pyrazol-4-yl)phenyl)amino)thieno[3,2-d]pyrimidin-2-yl)phenoxy)-N-(tert-butyl)acetamide]"
15,10 to 100,"CCC(C)(C)NC(=O)COc1cccc(-c2nc(Nc3ccc(-c4cn[nH]c4)cc3)c3sccc3n2)c1 [Example 43, 2-(3-(4-((4-(1H-pyrazol-4-yl)phenyl)amino)thieno[3,2-d]pyrimidin-2-yl)phenoxy)-N-(tert-pentyl)acetamide]"
16,10 to 100,"CC(=O)N1CCc2nc(-c3cccc(OCC(=O)NC(C)C)c3)nc(Nc3ccc(-c4cn[nH]c4)cc3)c2C1 [Example 44, 2-(3-(4-((4-(1H-pyrazol-4-yl)phenyl)amino)-6-acetyl-5,6,7,8-tetrahydropyrido[4,3-d]pyrimidin-2-yl)phenoxy)-N-isopropylacetamide]"
